Data: patent publication US4585773A, “Isoindolinyl-alkyl-piperazines” (Bristol-Myers Company, priority 1984, dated 1986)
Counter-ions that a name gives are not always drawn. Like-named read-outs stand apart in the source and are kept apart here.

Experiments:
[1] = test system: α blocking activity (phenylephrine); assay: in vivo α blocking activity, phenylephrine (PE) as α-agonist (Table III); set-up: species or system rat; ED50: unit not given beside the values; conditions: for in vivo α blocking activity (in words): conclusion from Table III
Procedure: (§1) In this example the compounds of Examples I (modified), II, III, V, VI, VII, VIII, IX and XI were tested in rats for in vivo α blocking activity according to methodology described at page 312 of Deitchman, et al., Journal of Pharmacological Methods, 3, 311-321 (1980). In this test phenylephrine (PE below) or norepinephrine (NE below) was administered as an α-agonist to the rats before and after dosing with the test drug and the average interpolated dose or PE/NE effecting a 50 mm Hg increase in mean arterial blood pressure was determined. Table III below records the results. In such Table, ED50 stands for such average interpolated dose and Average Dose Shift stands for the average ratio of ED50 after drug administration to ED50 before drug administration. The compound of Example I was tested as its monochloride 2-propanolate hydrate, i.e. as C22 H27 ClN4 O4 S.HCl 0.2(CH3)2 CHOH.0.15H2 O in Tests 1-5 and as the 3/4 mole hydrochloride, i.e. C22 H27 ClN 4 O4 S.3/4HCL in Tests 2a and 3a. The route was intravenous except in the case of the runs of Test Nos. 2a, 3, 3a, 26-29 the route was oral.

[2] = conscious rat diuretic screen of Lipschitz (Table I); format: in vivo, rat (female Sprague Dawley; male Okamoto-Aoki); conditions: female Sprague Dawley rats; for response vs control in vivo at 3 mg/kg / response vs control in vivo at 30 mg/kg: Rattus norvegicus, po
Procedure: With respect to diuretic utility there can be mentioned the conscious rat diuretic screen of Lipschitz, et al. (J. Pharmacol. Exp. Therap. 79, 97-110 (1943)). In this test, dose response assays of diuretic, natruiretic and kaliuretic activity are determined by oral administration of the test substance. The compounds synthesized in Examples I-XI were tested for diuretic […]. The compound of Example I was tested as its monohydrochloride 2-propanolate hydrate, i.e. as C22 […] ClN4 O4 S.HCl. 0.2(CH3)2 CHOH.0.15H2 O. Testing was carried out by the diuretic screen of Lipschitz, et al. described previously. In Table I below Volume Ratio is the ratio of total volume excreted for the test comuound compared to the total volume excreted for the control, Na^+ Ratio is the Na^+ excreted for the test compound compared to the Na^+ excreted for the control, K^+ Ratio is the K^+ excreted for the test compound compared to the K^+ excreted for the control. Female Sprague Dawley rats were used in Test Nos. 1, 2, 6, 7, 11-29. Male Okamoto-Aoki rats were used in Test Nos. 3-5 and 8-10 and testing for antihypertensive activity was carried out simultaneously on the Test Nos. 3-5 rats. In some instances, compounds were retested at the same dose level.

[3] = test system: α blocking activity (norepinephrine); assay: in vivo α blocking activity, norepinephrine (NE) as α-agonist (Table III); set-up: species or system rat; conditions: ED50 after/before drug
Procedure: as §1

[4] = test system: Spontaneously Hypertensive rat; assay: antihypertensive activity, Spontaneously Hypertensive Rat (Table II); format: in vivo; conditions: for antihypertensive effect (in words): conclusion from Table II (SHR, and DOCA for Examples I-IV)
Procedure: Spontaneously Hypertensive Rat Male rats weighing 300-400 g, previously conditioned to the procedure, are prewarmed in a heating chamber (30° C.) for 10-20 min. and subsequently restrained in a wire holder at that temperature. Systolic blood pressure and heart rate are measured by the tailcuff technique using a pneumatic pulse transducer and a biotachometer before, and 2, 4, and 24 hours after oral administration of vehicle (0.25% Methocel in water) or test compounds suspended in vehicle at a dose volume equivalent to 5 ml/kg. Blood pressure and heart rate data are reported as changes from zero-hour measurements with vehicle control groups run periodically to confirm that the vehicle has no effect. Testing was carried out on the compounds of Examples I-XII for antihypertensive activity. In the case of all the compounds testing was carried out on the Spontaneously Hypertensive rat as described hereinbefore. In the case of the compounds of Examples I-IV testing was also carried out on the DOCA-salt Hypertensive Rat. The compound of Example I was tested as its monochloride 2-propanolate hydrate, i.e. as C22 […] ClN4 O4 S.HCl.0.2(CH3)2 CHOH.0.15H2 O in Tests 1-5; and as the 3/4 mole hydrochloride, i.e. C22 […] ClN4 O4 S: 3/4 HCl in Tests 3a, 4a, 5a-5d. Test results are set forth in Table II below wherein SHR stands for Spontaneously Hypertensive rat, DOCA stands for DOCA-salt Hypertensive Rat, ΔBP stands for the change in systolic blood pressure in mm Hg, ΔHR stands for the change in mean heart rate in beats per minute and the times set forth are the times after dosing. A peak change in ΔBP of more than 20 is considered as indicating activity.

α1 = assay: in vitro α1 binding, [3H]WB-4101 (Table IV); conditions: [3H]WB-4101, brain tissue, 50 mM Hepes.KOH, pH 7.4; read-out: α1 Binding IC50
Procedure: (§2) In this Example the compounds of Examples I-XI were tested in vitro for α1 and α2 binding. The compound of Example I was tested as its monochloride 2-propanolate hydrate, i.e. as C22 […] CLN4 O4 S .HCl.0.2(CH3)2 CHOH 0.15H2 O. In the testing specific brain tissues were prepared as sources of binding sites. Aliquots of the washed members are incubated with a low concentration of […]. After incubation at suitable temperature, the reaction mixture is treated to separate the membrane-bound radioligand Radioactivity is measured. Linear regression analysis of the probit value for the percent of binding occurring in the presence of varying concentrations of the compound of interest plotted against the concentration of the compound yields concentrations which inhibit 50% specific binding, the IC50. The assay buffer is 50 mM Hepes.KOH, pH 7.4. The ligand is [^3 H]WB-4101 from New England Nuclear for α1 and [^3 H]Clonidine from New England Nuclear for α2. The results are considered against phentolamine methanesulfonate (Reference) which is considered a good α-binder.

α2 = assay: in vitro α2 binding, [3H]Clonidine (Table IV); conditions: for IC50: [3H]Clonidine, brain tissue, 50 mM Hepes.KOH, pH 7.4, read-out: α2 Binding IC50
Procedure: as §2

[5] = test system: DOCA-salt Hypertensive Rat; assay: antihypertensive activity, DOCA-salt Hypertensive Rat (Table II); format: in vivo; conditions: DOCA
Procedure: DOCA-salt Hypertensive Rat
Male rats initially weighing 80-100 g, are made hypertensive by surgically implanting two 50 mg pellets of deoxycorticosterone acetate (DOCA) under the skin of the abdomen of each rat and providing 1% saline ad libitum. After three weeks, the 1% saline is replaced with distilled water. One week later, animals are anesthetized with methoxyflurane and a catheter advanced into the aorta via the left common corotid artery to record mean arterial blood pressure (MABP) and heart rate. The heparin-filled catheter is passed beneath the skin and exteriorized behind the head. Two days later, MABP and heart rate are determined before and four hours after oral administration of vehicle (0.25% Methocel in 0.9% saline) or test compound suspended in vehicle at a dose volume equivalent to 5 ml/kg.
Testing was carried out on the compounds of Examples I-XII for antihypertensive activity. In the case of all the compounds testing was carried out on the Spontaneously Hypertensive rat as described hereinbefore. In the case of the compounds of Examples I-IV testing was also carried out on the DOCA-salt Hypertensive Rat. The compound of Example I was tested as its monochloride 2-propanolate hydrate, i.e. as C22 H27 ClN4 O4 S.HCl.0.2(CH3)2 CHOH.0.15H2 O in Tests 1-5; and as the 3/4 mole hydrochloride, i.e. C22 H27 ClN4 O4 S: 3/4 HCl in Tests 3a, 4a, 5a-5d. Test results are set forth in Table II below wherein SHR stands for Spontaneously Hypertensive rat, DOCA stands for DOCA-salt Hypertensive Rat, ΔBP stands for the change in systolic blood pressure in mm Hg, ΔHR stands for the change in mean heart rate in beats per minute and the times set forth are the times after dosing. A peak change in ΔBP of more than 20 is considered as indicating activity.

[6] = 3 mg/kg oral, read-out: K+ Ratio
[7] = 3 mg/kg oral, read-out: Na+ Ratio
[8] = 3 mg/kg oral, read-out: Volume Ratio
[9] = 30 mg/kg oral, read-out: K+ Ratio
[10] = 30 mg/kg oral, read-out: Na+ Ratio
[11] = 30 mg/kg oral, read-out: Volume Ratio

| Compound | in vivo α blocking activity (in words) [1] | ED50 ([1]; iv) | Urinary Na/K (Test Compound) ([2]; 3 mg/kg oral) | Urinary Na/K (Test Compound) ([2]; 30 mg/kg oral) | response vs control in vivo at 3 mg/kg [2, 6] [%] | response vs control in vivo at 3 mg/kg [2, 7] [%] | response vs control in vivo at 3 mg/kg [2, 8] [%] | response vs control in vivo at 30 mg/kg [2, 9] [%] | response vs control in vivo at 30 mg/kg [2, 10] [%] | response vs control in vivo at 30 mg/kg [2, 11] [%] | ΔBP 2 hours ([4]; SHR, 30 mg/kg oral) [mm Hg] | ΔBP 4 hours ([4]; SHR, 30 mg/kg oral) [mm Hg] | ΔHR 2 hours ([4]; SHR, 30 mg/kg oral) [beats per minute] | ΔHR 4 hours ([4]; SHR, 30 mg/kg oral) [beats per minute] | antihypertensive effect (in words) [4] | IC50 (α1) [nM] | IC50 (α2) [nM] | ΔBP 4 hours ([5]; 30 mg/kg oral) [mm Hg] | ΔHR 4 hours ([5]; 30 mg/kg oral) [beats per minute] | α2 binding activity (in words) (α2) | also measured |
| --- | --- | --- | --- | --- | --- | --- | --- | --- | --- | --- | --- | --- | --- | --- | --- | --- | --- | --- | --- | --- | --- |
| COc1ccccc1N1CCN(CCCCN2Cc3cc(Cl)c(S(N)(=O)=O)cc3C2=O)CC1 [Example XI, 6-Chloro-2,3-dihydro-2-[4-[4-(2-methoxyphenyl)-1-piperazinyl]butyl]-3-oxo-1H-isoindole-5-sulfonamide] | active as in vivo α blockers | 375 | 3.09 | 2.62 | 111 | 113 | 108 | 137 | 117 | 94 | -94 ± 10 | -60 ± 21 | -2 ± 8 | -22 ± 14 | good antihypertensive effect without significantly affecting heart rate | – | – | – | – | – | Average Dose Shift ([3]; dose 0.3, intravenous): 5 ± 0.5; Average Dose Shift ([3]; dose 1.0, intravenous): 27 ± 28; Average Dose Shift ([3]; dose 3, intravenous): 63 ± 19 |
| Cc1ccccc1N1CCN(CCCN2Cc3cc(Cl)c(S(N)(=O)=O)cc3C2=O)CC1 [Example IV, 6-Chloro-2,3-dihydro-2-[3-[4-(2-methylphenyl)-1-piperazinyl]propyl]-3-oxo-1H-isoindole-5-sulfonamide] | – | – | 3.49 | – | 97 | 123 | 104 | 117 | 121 | – | -48 ± 19 | -53 ± 7 | -36 ± 5 | -22 ± 22 | good antihypertensive effect without significantly affecting heart rate | 4.16 | 1430 | -79 ± 4 | 18 ± 13 | – | ΔBP 4 hours ([5]; 0.3 mg/kg oral): -8 ± 3 mm Hg; ΔHR 4 hours ([5]; 0.3 mg/kg oral): 13 ± 21 beats per minute; ΔBP 4 hours ([5]; 3 mg/kg oral): -31 ± 7 mm Hg; ΔHR 4 hours ([5]; 3 mg/kg oral): 22 ± 9 beats per minute |
| NS(=O)(=O)c1cc2c(cc1Cl)CN(CCCN1CCN(c3cccc(Cl)c3)CC1)C2=O [Example II, 6-Chloro-2-[3-[4-(3-chlorophenyl)-1-piperazinyl]propyl]-2,3-dihydro-3-oxo-1H-isoindole-5-sulfonamide hydrochloride hemihydrate] | active as in vivo α blockers | 34.0 | – | 3.41 | – | – | – | 129 | 143 | 117 | -23 ± 4 | -18 ± 7 | -18 ± 10 | -4 ± 16 | good antihypertensive effect without significantly affecting heart rate | 7.62 | 694 | -33 ± 5 | 22 ± 17 | α2 binding activity | Average Dose Shift ([1]; ED50 after/before drug, PE, dose 10, intravenous): > 200 |
| Cl.NS(=O)(=O)c1cc2c(cc1Cl)CN(CCCN1CCN(c3ccccc3)CC1)C2=O.O [Example X, 6-chloro-2,3-dihydro-3-oxo-2-[3-(4-phenyl-1-piperazinyl)propyl]-1H-isoindole-5-sulfonamide hydrochloride hydrate] | active as in vivo α blockers | 45.0 | 3.19 | 2.83 | 121 | 138 | 124 | 157 | 163 | 153 | – | – | – | – | good antihypertensive effect without significantly affecting heart rate | 16 | 666 | – | – | α2 binding activity | Average Dose Shift ([1]; iv): 13 ± 2; peak change at 2 hours in ΔBP ([4]; SHR, 30 mg/kg oral): -34 mm Hg |
